Assay results taken from US12686678B2, “Crystal form of Lanifibranor, preparation method therefor, and use thereof” (INVENTIVA, priority 2020, dated 2026).

Legend:
Format in all cases: physicochemical
[1] = Adhesiveness (material sticking to punch, ENERPAC manual tablet press); details: about 30 mg, φ8 mm round tooling, 10 kN, held 30 s
Method: ENERPAC manual tablet press was used for testing. Approximately 30 mg of Form CSI was weighed and then added into the dies of φ8 mm round tooling, compressed at 10 kN and held for 30 s. The punch was weighed and the amount of material sticking to the punch was calculated. The compression was repeated twice and the maximum amount and average amount of material sticking to the punch during the compression were recorded. […] ENERPAC manual tablet press was used for testing. Approximately 30 mg of Form CSII was weighed and then added into the dies of φ8 mm round tooling, compressed at 10 kN and held for 30 s. The punch was weighed and amount of material sticking to the punch was calculated. The compression was repeated twice and the maximum amount and average amount of material sticking to the punch during the compression were recorded. […] ENERPAC manual tablet press was used for testing. Approximately 30 mg of Form CSIV was weighed and then added into the dies of φ8 mm round tooling, compressed at 10 KN and held for 30 s. The punch was weighed and amount of material sticking to the punch was calculated. The compression was repeated twice and the maximum amount and average amount of material sticking to the punch during the compression were recorded.

[2] = Physical and chemical stability on storage (XRPD for crystalline form, HPLC for purity)
Method: A certain amount of Form CSI of the present disclosure was stored under different conditions of 25° C./60% RH, 40° C./75% RH, and 60° C./75% RH. Crystalline form and chemical purity were checked by XRPD and HPLC, respectively. Open packaged: Put the sample into a glass vial, cover the vial with aluminum toil, and punch 5-10 holes in the foil. Sealed packaged: Put the sample into a glass vial, cap the vial tightly, and seal the vial in an aluminum foil bag. A certain amount of Form CSII of the present disclosure was stored under different conditions of 25° C./60% RH, 40° C./75% RH, and 60° C./75% RH. Crystalline form and chemical purity were checked by XRPD and HPLC, respectively. A certain amount of Form CSIV of the present disclosure was stored under different conditions of 25° C./60% RH, 40° C./75% RH, and 60° C./75% RH. Crystalline form and chemical purity were checked by XRPD and HPLC, respectively.

[3] = Particle size distribution (Mastersizer 3000, wet mode); details: after 30 seconds of ultrasonication, Isopar G
Method: The particle size distribution data in the present disclosure were acquired by an Mastersizer 3000 laser particle size analyzer of Malvern. The test was carried out in wet mode, using a Hydro MV dispersion device, and the dispersant was Isopar G. The parameters are shown in Table 3. A certain amount of Form CSI was added into a glass vial with about a certain volume of Isopar G (containing 0.2% lecithin). The mixture was mixed thoroughly and transferred into the Hydro MV dispersing device. The experiment was started when the obscuration was in appropriate range. The particle size distribution was tested after 30 seconds of ultrasonication.

[4] = Flowability (compressibility index from bulk and tapped density)
Method: Compressibility index is usually utilized to evaluate the flowability of powder or granules during the drug product process. Compressibility index test method is as follows: a certain amount of powder was added into a measuring cylinder and bulk volume was recorded. Then the powder was tapped to make it in the tightest state and the tapped volume was recorded. The bulk density (ρ0) and tapped density (ρf) were calculated and compressibility index was calculated according to c=(ρf−ρ0)/ρf.

[5] = Hygroscopicity by dynamic vapor sorption (DVS); details: for Weight gain from 0 to 60% RH / Weight gain from 0 to 70% RH: DVS, 25° C.; for Crystalline state after DVS: XRPD before and after DVS test
Method: Dynamic Vapor Sorption (DVS) was measured via an SMS (Surface Measurement Systems Ltd.) intrinsic DVS instrument. The instrument control software is DVS-Intrinsic control software. Typical Parameters for DVS test are as follows: • Temperature: 25° C. • Gas and flow rate: N2, 200 mL/min • RH range: 0% RH to 95% RH Dynamic vapor sorption (DVS) analyzer was applied to evaluate the hygroscopicity of amorphous with a certain amount of sample. The weight gains at each relative humidity were recorded in a cycle of 0-95% RH-0. […] Dynamic vapor sorption (DVS) analyzer was applied to evaluate hygroscopicity of Form CSI with a certain amount of sample. The weight gains at each relative humidity were recorded in a cycle of 0-95% RH-0. Dynamic vapor sorption (DVS) analyzer was applied to evaluate hygroscopicity of Form CSII with a certain amount of sample. The weight gains at each relative humidity were recorded in a cycle of 50% RH-95% RH-0%-95% RH. Dynamic vapor sorption (DVS) analyzer was applied to evaluate hygroscopicity of Form CSIV and prior art amorphous with certain amounts of samples. The weight gains at each relative humidity were recorded in a cycle of 0-95% RH-0.

[6] = Appearance of powder on sulphuric acid paper
Text: A certain amount of Form CSI was weighed and put on sulphuric acid paper to observe the appearance The appearance of Form CSI is shown in FIG. 15. […] A certain amount of Form CSII was weighed and put in sulphuric acid paper, and the powder state was observed. […] A certain amount of Form CSIV was weighed and put in sulphuric acid paper, and the powder state was observed.

[7] = Physical stability upon manual grinding (XRPD); details: ground manually for 5 minutes in a mortar
Method: Form CSII was grounded manually for 5 minutes in a mortar. […] Form CSIV was grounded manually for 5 minutes in a mortar.

[8] = Physical stability upon tableting under different pressures (XRPD)
Text: A certain amount of Form CSII was compressed into tablet under different pressures with suitable tableting die. Crystalline form before and after tableting were checked by XRPD. […] A certain amount of Form CSIV was compressed into tablet under different pressures with suitable tableting die. Crystalline form before and after tableting were checked by XRPD.

[9] = 25° C./60% RH, open packaged, 6 months
[10] = 25° C./60% RH, sealed packaged, 6 months
[11] = 40° C./75% RH, open packaged, 6 months
[12] = 40° C./75% RH, sealed packaged, 6 months
[13] = 60° C./75% RH, open packaged, 3 months
[14] = 60° C./75% RH, sealed packaged, 3 months
[15] = 25° C./60% RH, open packaged, 3 months
[16] = 25° C./60% RH, sealed packaged, 3 months
[17] = 40° C./75% RH, open packaged, 3 months
[18] = 40° C./75% RH, sealed packaged, 3 months
[19] = 60° C./75% RH, open packaged, one month
[20] = 60° C./75% RH, sealed packaged, one month

SMILES: O=C(O)CCCc1cc2cc(Cl)ccc2n1S(=O)(=O)c1ccc2ncsc2c1 [Form CSI, 5-Chloro-1-[(6-benzothiazolyl)sulfonyl]-1H-indole-2-butanoic acid]
- Average adhesion amount [1]: 0.45 mg
- Time for which the form is stable (crystalline state doesn't change) ([2]; 25° C./60% RH): at least 6 months
- Form after storage [2, 9]: Form CSI
- Purity change [2, 9]: 0.02%
- Form after storage [2, 10]: Form CSI
- Purity change [2, 10]: 0.03%
- Time for which the form is stable (crystalline state doesn't change) ([2]; 40° C./75% RH): at least 6 months
- Form after storage [2, 11]: Form CSI
- Purity change [2, 11]: 0.05%
- Form after storage [2, 12]: Form CSI
- Purity change [2, 12]: 0.01%
- Time for which the form is stable (crystalline state doesn't change) ([2]; 60° C./75% RH): at least 3 months
- Form after storage [2, 13]: Form CSI
- Purity change [2, 13]: 0.08%
- Form after storage [2, 14]: Form CSI
- Purity change [2, 14]: 0.07%
- D10 [3]: 0.725 μm
- D50 [3]: 1.89 μm
- D90 [3]: 7.15 μm
- MV [3]: 4.54 μm
- Bulk density [4]: 0.405 g/mL
- Tapped density [4]: 0.526 g/mL
- Flowability ([4]; class by compressibility index, ICH Q4B Annex 13): Passable (21-25)
- Weight gain from 0 to 60% RH ([5]; 0 to 60% RH): 0.17%
- Weight gain from 0 to 70% RH ([5]; 0 to 70% RH): 0.17%
- Crystalline state after DVS [5]: remains unchanged
- Appearance of powder [6]: powdery with uniformly dispersed and has no adhesion phenomenon

SMILES: O=C(O)CCCc1cc2cc(Cl)ccc2n1S(=O)(=O)c1ccc2ncsc2c1 [amorphous, 5-Chloro-1-[(6-benzothiazolyl)sulfonyl]-1H-indole-2-butanoic acid, reference compound]
- Weight gain of amorphous relative to that of Form CSI ([5]; 0 to 60% RH): about 6 times
- Weight gain of amorphous relative to that of Form CSII ([5]; 0 to 60% RH): about 4 times
- Weight gain of amorphous relative to that of Form CSIV ([5]; 0 to 60% RH and 0 to 70% RH): about 4 times
- Weight gain of amorphous relative to that of Form CSI ([5]; 0 to 70% RH): ~7 times
- Weight gain of amorphous relative to that of Form CSII ([5]; 0 to 70% RH): ~5 times
- Weight gain from 0 to 60% RH ([5]; 0 to 60% RH): 0.94%
- Weight gain from 0 to 60% RH ([5]; 0 to 60% RH, listed as prior art amorphous): 0.94%
- Weight gain from 0 to 70% RH ([5]; 0 to 70% RH): 1.18%
- Weight gain from 0 to 70% RH ([5]; 0 to 70% RH, listed as prior art amorphous): 1.18%

SMILES: O=C(O)CCCc1cc2cc(Cl)ccc2n1S(=O)(=O)c1ccc2ncsc2c1 [Form CSII, 5-Chloro-1-[(6-benzothiazolyl)sulfonyl]-1H-indole-2-butanoic acid]
- Average adhesion amount [1]: 0.20 mg
- Time for which the form is stable (crystalline state doesn't change) ([2]; 25° C./60% RH): at least 3 months
- Form after storage [2, 15]: Form CSII
- Purity change [2, 15]: 0.09%
- Form after storage [2, 16]: Form CSII
- Purity change [2, 16]: 0.06%
- Time for which the form is stable (crystalline state doesn't change) ([2]; 40° C./75% RH): at least 3 months
- Form after storage [2, 17]: Form CSII
- Purity change [2, 17]: 0.07%
- Form after storage [2, 18]: Form CSII
- Purity change [2, 18]: 0.01%
- Time for which the form is stable (crystalline state doesn't change) ([2]; 60° C./75% RH): at least one month
- Form after storage [2, 19]: Form CSII
- Purity change [2, 19]: 0.05%
- Crystalline state after grinding [7]: remains unchanged
- Solid form after tableting ([8]; Pressure 5 kN): Form CSII
- Solid form after tableting ([8]; Pressure 10 kN): Form CSII
- Solid form after tableting ([8]; Pressure 20 kN): Form CSII
- Weight gain from 0 to 60% RH ([5]; 0 to 60% RH): 0.21%
- Weight gain from 0 to 70% RH ([5]; 0 to 70% RH): 0.27%
- Crystalline state after DVS [5]: remains unchanged
- Appearance of powder [6]: powdery with uniformly dispersed and has no adhesion phenomenon

SMILES: O=C(O)CCCc1cc2cc(Cl)ccc2n1S(=O)(=O)c1ccc2ncsc2c1 [Form CSIV, 5-Chloro-1-[(6-benzothiazolyl)sulfonyl]-1H-indole-2-butanoic acid]
- Average adhesion amount [1]: 0.05 mg
- Time for which the form is stable (crystalline state doesn't change) ([2]; 25° C./60% RH): at least 3 months
- Form after storage [2, 15]: Form CSIV
- Purity change [2, 15]: 0.02%
- Form after storage [2, 16]: Form CSIV
- Purity change [2, 16]: 0.04%
- Time for which the form is stable (crystalline state doesn't change) ([2]; 40° C./75% RH): at least 3 months
- Form after storage [2, 17]: Form CSIV
- Purity change [2, 17]: 0.00%
- Form after storage [2, 18]: Form CSIV
- Purity change [2, 18]: 0.03%
- Time for which the form is stable (crystalline state doesn't change) ([2]; 60° C./75% RH): at least one month
- Form after storage [2, 19]: Form CSIV
- Purity change [2, 19]: 0.04%
- Form after storage [2, 20]: Form CSIV
- Purity change [2, 20]: 0.06%
- Crystalline state after grinding [7]: remains unchanged
- Solid form after tableting ([8]; Pressure 5 kN): Form CSIV
- Solid form after tableting ([8]; Pressure 10 kN): Form CSIV
- Solid form after tableting ([8]; Pressure 20 kN): Form CSIV
- Weight gain from 0 to 60% RH ([5]; 0 to 60% RH): 0.23%
- Weight gain from 0 to 70% RH ([5]; 0 to 70% RH): 0.27%
- Crystalline state after DVS [5]: remains unchanged
- Appearance of powder [6]: powdery with uniformly dispersed and has no adhesion phenomenon
